Measured values from US20170368134A1, “PROTEASOME INHIBITORS FOR TREATING A DISORDER RELATED TO AN ACCUMULATION OF NON-DEGRADED ABNORMAL PROTEIN OR A CANCER” (UNIVERSITÉ D'AIX-MARSEILLE, priority 2015, published 2017).
Peptide text beside a SMILES is read from it. * marks the point of attachment. Cbz = O=C(OCc1ccccc1)*

Assays:
progerin [1] = assay: Western blot of progerin levels in HGPS fibroblasts; type: cell-based, human; details: for reduction in progerin amounts: normalized with tubulin, vs DMSO-treated HGPS cells
Protocol: HGPS fibroblasts (AG01972: person, AG11498: person) were obtained from the Coriell Cell Repository. Cells were cultured in Dulbecco's modified Eagle's medium (Life Technologies) supplemented with 15% fetal bovine serum (Life Technologies), 2 mM L-glutamine (Life Technologies) and 1× penicillin-streptomycin (Life Technologies) at 37° C. in a humidified atmosphere containing 5% CO2. […]
Total fibroblast proteins were extracted in 200 μL of NP40 Cell Lysis buffer (Invitrogen, Carlsbad, Calif.) containing Protease and Phosphatase Inhibitor Cocktail (Thermo Scientific). Alternatively, cells were lysed with urea (8 M urea, 5 mM dithiothreitol, 150 mM NaCl, 50 mM Tris-Cl pH 7.5, protease and phosphatase Inhibitor Cocktail (Thermo Scientific)). Cells were sonicated twice (30 sec each), incubated at 4° C. for 30 minutes and then centrifuged at 10,000 g for 10 minutes. Protein concentration was evaluated with the bicinchoninic acid technique (Pierce BCA Protein Assay Kit), absorbance at 562 nm is measured using nanodrop 1000 (Thermo Fisher Scientific Inc.) Equal amounts of proteins (40 μg) were loaded onto 10% Tis-Glycine gel (Criterion™ XT precast gel) using XT Tricine running Buffer (Biorad, USA). After electrophoresis, gels were electro transferred onto nitrocellulose membranes or Immobilon-FL polyvinylidene fluoride membranes (Millipore), blocked in Odyssey Blocking Buffer diluted 1:1 in PBS for 1 hour at room temperature, and incubated overnight at 4° C. or 2 hours at room temperature with various primary antibodies. Blots were washed with TBS-T buffer [20 mM tris (pH 7.4), 150 mM NaCl, and 0.05% Tween 20] and incubated with 1:10,000 IR-Dye 800-conjugated secondary donkey anti-goat or IR-Dye 700-conjugated secondary anti-mouse antibodies (LI-COR Biosciences) in Odyssey blocking buffer (LI-COR Biosciences). For IR-Dye 800 and IR-Dye 700 detection, an Odyssey Infrared Imaging System (LI-COR Biosciences) was used. GAPDH, α-tubulin or β-actin were used as a total cellular protein loading control.

progerin mRNA = assay: qRT-PCR of progerin transcripts in HGPS fibroblasts; type: cell-based, human; details: 10 μM MG132, time dependent, relative to DMSO
Protocol: Total RNA was isolated using the RNeasy plus extraction kit (Qiagen, Valencia, Calif.). 1 μg of RNA was reverse transcribed using the High Capacity cDNA Reverse Transcription Kit (Applied Biosystems). Real time PCR amplification was carried out with the TaqMan® Gene Expression Master Mix (Applied Biosystems) on a LightCycler 480 (Roche, Germany) using pre-designed primers for GAPDH (Hs00266705_g1), Progerin (F: […] (SEQ ID NO:3) R: […] (SEQ ID NO:4) and probe: […] (SEQ ID NO:5)), Lamin A (F: […] (SEQ ID NO:6) R: […] (SEQ ID NO:7) and probe: […] (SEQ ID NO:8)) and lamin C (F: […] (SEQ ID NO:9) R: […] (SEQ ID NO:10) and probe: […] (SEQ ID NO:11)) (Applied Biosystems) using the program: UNG incubation at 50° C. for 2 minutes, initial denaturation at 95° C. for 10 minutes, 40 cycles of amplification: denaturation at 95° C. for 15 seconds and annealing at 60° C. for 1 minute. All PCR reactions were performed in triplicate. Threshold cycle (Ct) values were used to calculate relative mRNA expression by the 2-ΔΔ^T relative quantification method with normalization to GAPDH expression.

progerin [2] = assay: Intramuscular MG132 in Lmna G609G/G609G mice, progerin in gastrocnemius muscle; type: in vivo, mouse
Protocol: (§1) (A) Lamin A, progerin, lamin C and SRSF-1 specific bands, corresponding to DMSO-treated left muscle (−) and 1 μg/Kg MG132-treated right muscle (+), were quantified by ImageJ software and their expression levels were normalized to GAPDH values.
(§2) Knock-in mouse model (Lmna^G609G/G609G) carrying the c.1827C>T (p.Gly609Gly) mutation in the endogenous Lmna gene, corresponding to the human HGPS mutation c.1824C>T (p.Gly609Gly) have been described previously (31). MG132 (1 or 10 μg/Kg body weight) was injected under isoflurane anesthesia into the right gastrocnemius muscle of […] homozygous knock-in mice (Lmna^G609G/G609G) 3 times per week for 2 weeks. Contralateral muscle served as control (DMSO). MG132 was dissolved in dimethyl sulfoxide (DMSO) and then diluted in 100 μl sterile phosphate-buffered saline (PBS) for intramuscular injection. […] Animal experiments have been carried out in compliance with the European guidelines for the care and use of laboratory animals (EU directive 2010/63/EU) and in accordance with the recommendations provided by the guide for the care and use of the laboratory animals of the French national Institute for Health and Medical Research (INSERM) and the ethical committee of Aix-Marseille University.

[3] = test system: Act88F-PABPN1-17ala-expressing flies; assay: Wing posture defects in Drosophila OPMD model; type: in vivo; details: oral in food, from larval stages, Day 3 to Day 11 of adulthood, vs DMSO alone
Protocol: Drug supplemented food was prepared as follows. Instant Drosophila medium (Carolina Biological Supply Company) was reconstituted in each vial with a solution of 1% yeast in water, supplemented with either increasing concentrations of drug solubilized in DMSO (dimethyl sulfoxide), or DMSO alone. MG132 was purchased from Santa Cruz Biotechnology (SC-201270). Each vial contained 5 ml or 2.5 ml of reconstituted medium, to raise larvae or adults, respectively. Individuals were fed with the drug from larval stages. 70 to 80 first instar larvae were transferred per vial and developed in the same vial up to adulthood; adults were transferred in a new vial with the same concentration of drug. […] Abnormal wing posture was quantified by collecting adult males at birth, pooling five males per vial and scoring abnormal wing position each day by direct observation of the flies through the vials, without anesthesia.
The inventors used the Drosophila model in which PABPN1-17ala is expressed constitutively in adult indirect flight muscles from the Act88F-PABPN1-17ala transgene (90), to assay the effect of MG132 in vivo. […] Wing posture defects were recorded from Day 3 to Day 11 of adulthood. The effect of MG132 was quantified by recording the number of Act88F-PABPN1-17ala-expressing flies with abnormal wing posture.

[4] = test system: wild-type first instar larvae; assay: Toxicity of MG132 fed to Drosophila larvae; type: in vivo; details: 600 μM MG132 (in 0.2% DMSO) in the fly medium, 25° C.
Protocol: (A) The toxicity of MG132 fed to larvae was determined by transferring 80 wild-type first instar larvae into vials containing 5 ml of instant Drosophila medium reconstituted either with increasing concentrations of drug in DMSO, or DMSO alone.
Drug supplemented food was prepared as follows. Instant Drosophila medium (Carolina Biological Supply Company) was reconstituted in each vial with a solution of 1% yeast in water, supplemented with either increasing concentrations of drug solubilized in DMSO (dimethyl sulfoxide), or DMSO alone. MG132 was purchased from Santa Cruz Biotechnology (SC-201270). Each vial contained 5 ml or 2.5 ml of reconstituted medium, to raise larvae or adults, respectively. Individuals were fed with the drug from larval stages. 70 to 80 first instar larvae were transferred per vial and developed in the same vial up to adulthood; adults were transferred in a new vial with the same concentration of drug. To determine drug toxicity, 80 first instar larvae were transferred into vials containing drug- or DMSO alone-supplemented medium. Individuals reaching adulthood were scored. Abnormal wing posture was quantified by collecting adult males at birth, pooling five males per vial and scoring abnormal wing position each day by direct observation of the flies through the vials, without anesthesia.

lamin A = assay: Intramuscular MG132 in Lmna G609G/G609G mice, lamin A in gastrocnemius muscle; type: in vivo, mouse
Protocol: as §1, §2

[5] = 10 μg/kg body weight intramuscular

CC(C)C[C@@H](C=O)NC(=O)[C@H](CC(C)C)NC(=O)[C@H](CC(C)C)NC(=O)OCc1ccccc1 [MG132, Z-Leu-Leu-Leu-al] (Cbz-Leu-Leu-Leu-aldehyde)
reduction in progerin amounts (progerin [1]; 10 μM MG132, 6 h): 31% | reduction in progerin amounts (progerin [1]; 10 μM MG132, 24 h): 58% | reduction in progerin amounts (progerin [1]; 10 μM MG132, 48 h): 65% | progerin level at longer treatment (progerin [1]; cells solubilized with urea, 72 h of MG132 treatment): progerin reappears after 72 h of treatment | progerin mRNA expression (progerin mRNA): almost extinguished progerin mRNA expression | progerin level in treated muscle (progerin [2]; 1 μg/Kg intramuscular, 3 times per week for 2 weeks, vs contralateral muscle): significant decrease of progerin level | progerin level in treated muscle (progerin [2]; [5]): significant decrease of progerin levels | number of flies with abnormal wing posture [3]: significant decrease in the number of flies with abnormal wing posture | viability (flies reaching adulthood) [4]: not detrimental for viability | lamin A level in treated muscle (lamin A; 1 μg/Kg intramuscular, change not significant): small increase in lamin A | lamin A level in treated muscle (lamin A; [5]): remain constant or increase slightly
